Reference: patent US8106212B2, “Substituted enaminocarbonyl compounds” (Bayer Cropscience AG, priority 2006, dated 2012)

Experiments:
Format in all cases: in vivo
[1] = tested on: green peach aphid (Myzus persicae); assay: Myzus test (MYZUPE spray treatment); settings: Chinese cabbage discs sprayed
Procedure: [table] To produce a suitable preparation of active compound, 1 part by weight of active compound is mixed with the stated amounts of solvent and emulsifier, and the concentrate is diluted with emulsifier-containing water to the desired concentration. Discs of Chinese cabbage (Brassica pekinensis) which are infected by all stages of the green peach aphid (Myzus persicae) are sprayed with a preparation of active compound of the desired concentration. After the desired period of time, the effect in % is determined. 100% means that all aphids have been killed; 0% means that none of the aphids have been killed. [table] To produce a suitable preparation of active compound, 1 part by weight of active compound is mixed with the stated amounts of solvent and emulsifier, and the concentrate is diluted with emulsifier-containing water to the desired concentration. Discs of Chinese cabbage (Brassica pekinensis) which are infected by all stages of the green peach aphid (Myzus persicae) are sprayed with a preparation of active compound of the desired concentration. After the desired period of time, the effect in % is determined. 100% means that all aphids have been killed; 0% means that none of the aphids have been killed.

[2] = tested on: larvae of the mustard beetle (Phaedon cochleariae); assay: Phaedon test (PHAECO spray treatment); settings: 500 g/ha, Chinese cabbage discs sprayed
Procedure: [table] To produce a suitable preparation of active compound, 1 part by weight of active compound is mixed with the stated amounts of solvent and emulsifier, and the concentrate is diluted with emulsifier-containing water to the desired concentration. Discs of Chinese cabbage (Brassica pekinensis) are sprayed with a preparation of active compound of the desired concentration and, after drying, populated with larvae of the mustard beetle (Phaedon cochleariae). After the desired period of time, the effect in % is determined. 100% means that all beetle larvae have been killed; 0% means that none of the beetle larvae have been killed.

Boophilus microplus = Boophilus microplus test (BOOPMI injection); settings: 20 μg/Tier injected into abdomen, 100% = no tick has laid fertile eggs
Procedure: [table] To produce a suitable preparation of active compound, 1 part by weight of active compound is mixed with the stated amounts of solvent, and the concentrate is diluted with solvent to the desired concentration. The solution of active compound is injected into the abdomen (Boophilus microplus), and the animals are transferred into dishes and kept in a temperature-controlled room. After the desired period of time, the effect in % is determined. 100% means that no tick has laid any fertile eggs.

[3] = tested on: green peach aphid (Myzus persicae); assay: Myzus test; oral (MYZUPE O); settings: 0.0064 ppm, oral uptake by sucking
Procedure: Myzus Test; Oral; (MYZUPE O) Solvent: 80 parts by weight of acetone To produce a suitable preparation of active compound, 1 part by weight of active compound is mixed with the stated amounts of solvent, and the concentrate is diluted with water to the desired concentration. Containers are populated with all stages of the green peach aphid (Myzus persicae), treatment is by sucking at the preparation of active compound of the desired concentration. After the desired period of time, the effect in % is determined. 100% means that all aphids have been killed; 0% means that none of the aphids have been killed.

[4] = tested on: green peach aphid (Myzus persicae); assay: Myzus persicae test, hydroponic treatment (MYZUPE sys.); settings: 4 ppm in water (mg/l), pea plant
Procedure: [table] To produce a suitable preparation of active compound, 1 part by weight of active compound is mixed with the stated amounts of solvent and emulsifier, and the concentrate is diluted with water to the desired concentration. The preparation of active compound is mixed with water. The stated concentration refers to the amount of active compound per volume unit of water (mg/l=ppm). The treated water is filled into containers housing a pea plant (Pisum sativum) which is then infected with the green peach aphid (Myzus persicae). After the desired period of time, the kill in % is determined. 100% means that all aphids have been killed; 0% means that none of the aphids have been killed.

Meloidogyne incognita = assay: Meloidogyne test (MELGIN spray treatment); settings: 4 ppm, nematicidal activity by formation of galls on lettuce roots (100% = no galls)
Procedure: [table] To produce a suitable preparation of active compound, 1 part by weight of active compound is mixed with the stated amounts of solvent, and the concentrate is diluted with water to the desired concentration. Containers are filled with sand, active compound solution, Meloidogyne incognita egg/larvae suspension and lettuce seeds. The lettuce seeds germinate and the plants develop. On the roots, galls are formed. After the desired period of time, the nematicidal activity is determined by the formation of galls in %. 100% means that no galls were found; 0% means that the number of galls on the treated plants corresponds to that of the untreated controls.

[5] = tested on: cotton aphid (Aphis gossypii); assay: Aphis gossypii test (APHIGO), leaf dip; settings: 0.8 ppm, cotton leaves dipped
Procedure: [table] To produce a suitable preparation of active compound, 1 part by weight of active compound is mixed with the stated amounts of solvent and emulsifier, and the concentrate is diluted with emulsifier-containing water to the desired concentration. Cotton leaves (Gossypium hirsutum) which are heavily infested by the cotton aphid (Aphis gossypii) are treated by being dipped into the preparation of active compound of the desired concentration. After the desired period of time, the kill in % is determined. 100% means that all aphids have been killed; 0% means that none of the aphids have been killed.

[6] = tested on: adult fleas (Ctenocephalides felis); assay: Ctenocephalides felis; oral (CTECFE); settings: 4 ppm in citrated cattle blood
Procedure: [table] To produce a suitable preparation of active compound, 1 part by weight of active compound is mixed with the stated amount of solvent. Part of the concentrate is diluted with citrated cattle blood, and the desired concentration is prepared. 20 unfed adult fleas (Ctenocephalides felis) are placed into a chamber whose top and bottom ends are closed with gauze. A metal cylinder whose bottom end is closed with parafilm is placed onto the chamber. The cylinder contains the blood/active compound preparation, which can be taken up by the fleas through the parafilm membrane. The blood is warmed to 37° C., but the flea chamber is at room temperature. After the desired period of time, the kill in % is determined. 100% means that all fleas have been killed; 0% means that none of the fleas have been killed.

[7] = tested on: larvae of the banded cucumber beetle (Diabrotica balteata); assay: Diabrotica balteata test, larvae in soil (DIABBA); settings: 2 ppm in soil (mg/l), efficacy calculated from emerged maize plants
Procedure: [table] To produce a suitable preparation of active compound, 1 part by weight of active compound is mixed with the stated amounts of solvent and emulsifier, and the concentrate is diluted with water to the desired concentration. The active compound preparation is mixed with soil. The stated concentration refers to the amount of active compound per volume unit of soil (mg/l=ppm). The treated soil is filled into pots, and 5 maize corns are placed into each pot. 3 days after sowing, larvae of the banded cucumber beetle (Diabrotica balteata) are placed into the treated soil. After the desired period of time, the kill in % is determined. The efficacy is calculated from the number of maize plants that have emerged.

Lucilia cuprina larvae = assay: Lucilia cuprina test (LUCICU); settings: 4 ppm, treated horse meat
Procedure: [table] To produce a suitable preparation of active compound, 1 part by weight of active compound is mixed with the stated amounts of solvent, and the concentrate is diluted with water to the desired concentration. Containers containing horse meat treated with the preparation of active compound of the desired concentration are populated with Lucilia cuprina larvae. After the desired period of time, the kill in % is determined. 100% means that all larvae have been killed; 0% means that none of the larvae have been killed.

[8] = 4 g/ha, Biological Examples table
[9] = 100 g/ha, Biological Examples table
[10] = 20 g/ha, Biological Examples table

CN(Cc1cnc(Cl)c(Cl)c1)C1=CC(=O)OC1 [Example 10, 4-[[(5,6-dichloropyridin-3-yl)methyl](methyl)amino]furan-2(5H)-one]
Kill rate in % after 5 days [1, 8]: 100% | Kill rate in % after 5 days ([1]; 20 g/ha, comparative table): 100% | Kill rate in % after 7 days [2]: 100%

O=C1C=C(N(Cc2cnc(Br)c(Cl)c2)C2CC2)CO1 [Example 23]
Kill rate in % after 7 days (Boophilus microplus): 30%

CN(Cc1cnc(Cl)c(C#N)c1)C1=CC(=O)OC1 [Example 18]
Kill rate in % after 5 days [1, 9]: 100%

CC1OC(=O)C=C1N(C)Cc1cnc(Cl)c(Cl)c1 (centres unmarked) [Example 7, 4-[[(5,6-dichloropyridin-3-yl)methyl](methyl)amino]-5-methylfuran-2(5H)-one]
Kill rate in % after 5 days [1, 9]: 90%

Cc1cc(CN(C)C2=CC(=O)OC2)cnc1Cl [Example 13]
Kill rate in % after 5 days [3]: 70%

CN(Cc1cnc(Cl)c(Br)c1)C1=CC(=O)OC1 [Example 14]
Kill rate in % after 5 days [1, 10]: 100%

CN(Cc1cnc(Br)c(Br)c1)C1=CC(=O)OC1 [Example 22]
Kill rate in % after 5 days [4]: 100%

O=C1C=C(N(Cc2cnc(Cl)c(Br)c2)C2CC2)CO1 [Example 15]
Kill rate in % after 14 days (Meloidogyne incognita): 70% | Kill rate in % after 6 days [5]: 40%

O=C1C=C(N(Cc2cnc(Cl)c(F)c2)C2CC2)CO1 [Example 26]
Kill rate in % after 2 days [6]: 60%

CN(Cc1cnc(Cl)c(F)c1)C1=CC(=O)OC1 [Example 1, 4-[[(6-Chloro-5-fluoropyridin-3-yl)methyl](methyl)amino]furan-2(5H)-one]
Kill rate in % after 10 days [7]: 100% | Kill rate in % after 7 days (Boophilus microplus): 30%

CN(Cc1cnc(Cl)nc1)C1=CC(=O)OC1 [Example 5, 4-[[(2-Chloropyrimidin-5-yl)methyl](methyl)amino]furan-2(5H)-one]
Kill rate in % after 5 days [1, 8]: 100%

CN(Cc1cnc(Cl)c(I)c1)C1=CC(=O)OC1 [Example 19]
Kill rate in % after 5 days [1, 10]: 70%

CN(Cc1cnc(Br)c(F)c1)C1=CC(=O)OC1 [Example 24]
Kill rate in % after 5 days [4]: 100% | Kill rate in % after 5 days [1, 8]: 100%

CN(Cc1cnc(Cl)c(Cl)c1)C1=C(Cl)C(=O)OC1 [Example 8, 3-Chloro-4-[[(5,6-dichloropyridin-3-yl)methyl](methyl)amino]furan-2(5H)-one]
Kill rate in % after 5 days [1, 9]: 80%

O=C1C=C(N(Cc2cnc(Br)c(Br)c2)C2CC2)CO1 [Example 21]
Kill rate in % after 5 days [1, 10]: 80%

O=C1C=C(N(Cc2cnc(Cl)c(Cl)c2)C2CC2)CO1 [Example 11]
Kill rate in % after 5 days [1, 8]: 100% | Kill rate in % after 5 days ([1]; 100 g/ha, comparative table): 100% | Kill rate in % after 7 days [2]: 100% | Kill rate in % after 2 days [6]: 50% | Kill rate in % after 7 days (Boophilus microplus): 50%

Cc1cc(CN(C2=CC(=O)OC2)C2CC2)cnc1Cl [Example 12]
Kill rate in % after 6 days [5]: 50%

CN(Cc1cnc(Br)c(Cl)c1)C1=CC(=O)OC1 [Example 4, 4-[[(6-Bromo-5-chloropyridin-3-yl)methyl](methyl)amino]furan-2(5H)-one]
Kill rate in % after 5 days [4]: 100%

O=C1C=C(N(Cc2cnc(Cl)c(Cl)c2)C2CC2)CC1 [Example 17]
Kill rate in % after 5 days [1, 9]: 100%

CCN(Cc1cnc(Cl)c(Cl)c1)C1=CC(=O)OC1 [Example 16]
Kill rate in % after 5 days [1, 10]: 100%

O=C1C=C(N(Cc2cnc(Cl)c(I)c2)C2CC2)CO1 [Example 3, 4-[[(6-Chloro-5-iodopyridin-3-yl)methyl](cyclopropyl)amino]furan-2(5H)-one]
Kill rate in % after 7 days (Boophilus microplus): 40%

O=C1C=C(N(Cc2cnc(Cl)nc2)C2CC2)CO1 [Example 6, 4-[[(2-Chloropyrimidin-5-yl)methyl](cyclopropyl)amino]furan-2(5H)-one]
Kill rate in % after 5 days [1, 10]: 100%

CON(Cc1cnc(Cl)c(Cl)c1)C1=CC(=O)OC1 [Example 2, 4-[[(5,6-Dichloropyridin-3-yl)methyl](methoxy)amino]furan-2(5H)-one]
Kill rate in % after 7 days (Boophilus microplus): 30%

CCN(Cc1cnc(Cl)c(C)c1)C1=CC(=O)OC1 [Example 20]
Kill rate in % after 7 days (Boophilus microplus): 30%

O=C1C=C(N(Cc2cnc(Br)c(F)c2)C2CC2)CO1 [Example 25]
Kill rate in % after 5 days [1, 8]: 100% | Kill rate in % after 2 days (Lucilia cuprina larvae): 100%
